Source: patent EP0462621A2, “Use of particular compounds for manufacture of pharmaceutical formulations for treatment against various parasites, mycoplasmas, other indications and other infections” (Prendergast, Patrick Thomas, priority 1990, dated 1991)

Key:
HIV-I = assay: Experiment la(a): macrophage cells, HIV-I, p24 antigen capture radio-immunoassay; type: cell-based; conditions: for TITER: control titer 100000; for wells positive for HIV-I p24, LOG VIRUS DILUTION -1 / wells positive for HIV-I p24, LOG VIRUS DILUTION -2 / wells positive for HIV-I p24, LOG VIRUS DILUTION -3 / wells positive for HIV-I p24, LOG VIRUS DILUTION -4 / wells positive for HIV-I p24, LOG VIRUS DILUTION -5 / wells positive for HIV-I p24, LOG VIRUS DILUTION -6: duplicate runs
Protocol: Fresh macrophage cultures were obtained by incubation of mononuclear cells obtained from a leukopak directly in the wells of a microtiter plate having 6 wells per row. After removal of non-adherent cells, each row of the adherent macrophages was infected with 10-fold serial dilutions of HIV-I, with the use of polybrene to enhance uptake of the virus. After one to two hours, the virus inoculum was removed and replaced with fresh normal growth medium. The fresh medium for each row contained a particular concentration of AZT, dideoxy cytidine (ddC), or compound la, as indicated by the left-hand column of Table la(a). The first row of wells acted as a control, and to it was added fresh medium containing none of the three drugs. Medium levels were maintained for two to four weeks to allow replication of the virus to take place, with at least one complete fluid change to remove residual virus inoculum. The contents of each well were then tested for the level of HIV p24 antigen present using a commercially available antigen capture kit employing a radio-immunoassay which can detect as little as 10'^9gm of p24 present in a sample. The above procedure was done in duplicate runs.
The results were interpreted as follows: 2/2, for example, means that both the corresponding wells of both runs were positive for HIV-I p24, while 0/2 means that neither well was positive. The titers are given in the next to last column; where 1/2 wells was positive, an intermediate value was given to the titer that is half way between the two dilutions when calculated on a logarithmic scale. 3 µM IPA was positive in both wells at a dilution of 1/10,000 and in neither well at 1/100,000. Thus, one half log interval between 10^4 and 10^5 is 10^4.5, or 30,000.

T lymphocytes = assay: Lymphocyte blastogenesis assay, T lymphocytes (PHA); type: cell-based, human
Protocol: T and B lymphocytes from normal human donors were incubated for 30 minutes at various dose levels of the compounds indicated. The lymphocytes were added in triplicate wells in gentamicin and phytohemagglutinin (PHA) (a T cell mitogen), pokeweed mitogen (PWM) (a B cell mitogen) and allogeneic mononuclear cells (mixed leukocyte cultures; MLC) or media containing the above additives. The lymphocyte blastogenesis assay is described in detail below.
The data are represented as the mean of the three replicates. The results are presented in Charts la(e) (i) and la(e) (ii) (Figs. 1 and 2). […] A reduction of both T lymphocytes' abilities to proliferate was obtained when 100 u.M or greater concentrations of IPA was added to the cell cultures. Proliferative activity of T lymphocytes by 25% at the 30 u.M concentration of IPA in the experiment.
• 1. Mononuclear cells are separated from whole blood by differential centrifugation using a synthetic separation medium, or are thawed from a cryopreserved preparation. The cells are washed and resuspended in media (RPMI - 1640, L-Glutamine 2mM, Herpes Buffer 25mM, Gentamicin 50 ug/ml, Human AB Serum-heat inactivated (56°, 30°) 20%). • 2. A viable cell count is determined. • 3. Cell concentration is adjusted to 2 x 10^6 /ml in media. • 4. The cell suspension is added to wells of a 96-well flat bottom plate in 0.1 ml aliquots (2 x 10^5 cells). • 5. The selected mitogens and/or antigens (in media without serum) are added to the cells in the wells also in 0.1 ml aliquots. • 6. The cultures are incubated for 3-7 days (depending upon the mitogen or antigen) at 37° C in a humidified 5% C02 atmosphere. • 7. Six to eight hours before termination of cultures 0.05 ml (1 µCi) of ^3HTdR sp. act 6.7 Ci/mM (20 µCi/ml stock) is added to each well. • 8. At termination of cultures the cells are harvested onto strips of scintillation-grade fibreglass paper using a multiple sample harvester. • 9. Perforated disks from the fibreglass paper of the harvested cultures are placed each into scintillation vials to which is then added 5 ml of toluene based scintillation cocktail. • 10. The vials are counted in a liquid scintillation counter for one minute where the amount of incorporated ^3HTdR is determined.
net CPM = xCPM of mitogen/antigen cultures - xCPM of media cultures.

HIV-1 and CAEV = assay: Inhibition of virus replication, summary over viruses and cell lines of Figure 15; type: cell-based; conditions: depending upon the virus and cell line
Protocol: Selected results presented in Tables la(a), la(b) and la(c) are plotted in Figure 15.
It is apparent from Figure 15 that IPA appears to inhibit the replication of HIV-1 and CAEV at concentrations ranging from 3 to 30 µM and above. Without appropriate toxicity data it is not possible to calculate the therapeutic index at the various drug concentrations. Nevertheless, the IC50 can be seen to vary between approximately 2-6 u.M, depending upon the virus and cell line, and the ICso varies between 3-30 µM in these experiments.

In the case of CC(C)=CCNc1ncnc2c1ncn2[C@@H]1O[C@H](CO)[C@@H](O)[C@H]1O [IPA, N^6-(Δ^2-isopentenyl) adenosine], the activity at 3 µM (HIV-I; Human immunodeficiency virus 1, Macrophage, drug 3 μM, titer relative to control, read-out: PERCENT OF CONTROL) is reported as 30%, the activity at 10 µM (HIV-I; Human immunodeficiency virus 1, Macrophage, drug 10 μM, titer relative to control, read-out: PERCENT OF CONTROL) is reported as 10% and the activity at 30 µM (HIV-I; Human immunodeficiency virus 1, Macrophage, drug 30 μM, titer relative to control, read-out: PERCENT OF CONTROL) is reported as 1%. For the same compound, the activity at 100 µM (HIV-I; Human immunodeficiency virus 1, Macrophage, drug 100 μM, titer relative to control, read-out: PERCENT OF CONTROL) was 0.3%, the activity at 300 µM (HIV-I; Human immunodeficiency virus 1, Macrophage, drug 300 μM, titer relative to control, read-out: PERCENT OF CONTROL) was 0% and the activity at 1000 µM (HIV-I; Human immunodeficiency virus 1, Macrophage, drug 1000 μM, titer relative to control, read-out: PERCENT OF CONTROL) was 0%. For the same compound, the TITER (HIV-I; drug 3 μM) was 30000, the “wells positive for HIV-I p24, LOG VIRUS DILUTION -1” value (HIV-I; drug 3 μM) was 2/2 and the “wells positive for HIV-I p24, LOG VIRUS DILUTION -2” value (HIV-I; drug 3 μM) was 2/2. For the same compound, the “wells positive for HIV-I p24, LOG VIRUS DILUTION -3” value (HIV-I; drug 3 μM) was 2/2, the “wells positive for HIV-I p24, LOG VIRUS DILUTION -4” value (HIV-I; drug 3 μM) was 2/2 and the “wells positive for HIV-I p24, LOG VIRUS DILUTION -5” value (HIV-I; drug 3 μM) was 0/2. For the same compound, the “wells positive for HIV-I p24, LOG VIRUS DILUTION -6” value (HIV-I; drug 3 μM) was 0/2, the TITER (HIV-I; drug 10 μM) was 10000 and the “wells positive for HIV-I p24, LOG VIRUS DILUTION -1” value (HIV-I; drug 10 μM) was 2/2. For the same compound, the “wells positive for HIV-I p24, LOG VIRUS DILUTION -2” value (HIV-I; drug 10 μM) was 2/2, the “wells positive for HIV-I p24, LOG VIRUS DILUTION -3” value (HIV-I; drug 10 μM) was 2/2 and the “wells positive for HIV-I p24, LOG VIRUS DILUTION -4” value (HIV-I; drug 10 μM) was 1/2. The “wells positive for HIV-I p24, LOG VIRUS DILUTION -5” value (HIV-I; drug 10 μM) was 0/2, the “wells positive for HIV-I p24, LOG VIRUS DILUTION -6” value (HIV-I; drug 10 μM) was 0/2 and the TITER (HIV-I; drug 30 μM) was 1000. The “wells positive for HIV-I p24, LOG VIRUS DILUTION -1” value (HIV-I; drug 30 μM) was 2/2, the “wells positive for HIV-I p24, LOG VIRUS DILUTION -2” value (HIV-I; drug 30 μM) was 2/2 and the “wells positive for HIV-I p24, LOG VIRUS DILUTION -3” value (HIV-I; drug 30 μM) was 1/2. For the same compound, the “wells positive for HIV-I p24, LOG VIRUS DILUTION -4” value (HIV-I; drug 30 μM) was 0/2, the “wells positive for HIV-I p24, LOG VIRUS DILUTION -5” value (HIV-I; drug 30 μM) was 0/2 and the “wells positive for HIV-I p24, LOG VIRUS DILUTION -6” value (HIV-I; drug 30 μM) was 0/2. For the same compound, the TITER (HIV-I; drug 100 μM) was 300, the “wells positive for HIV-I p24, LOG VIRUS DILUTION -1” value (HIV-I; drug 100 μM) was 2/2 and the “wells positive for HIV-I p24, LOG VIRUS DILUTION -2” value (HIV-I; drug 100 μM) was 2/2. The “wells positive for HIV-I p24, LOG VIRUS DILUTION -3” value (HIV-I; drug 100 μM) was 0/2, the “wells positive for HIV-I p24, LOG VIRUS DILUTION -4” value (HIV-I; drug 100 μM) was 0/2 and the “wells positive for HIV-I p24, LOG VIRUS DILUTION -5” value (HIV-I; drug 100 μM) was 0/2. The “wells positive for HIV-I p24, LOG VIRUS DILUTION -6” value (HIV-I; drug 100 μM) was 0/2, the TITER (HIV-I; drug 300 μM) was 10 and the “wells positive for HIV-I p24, LOG VIRUS DILUTION -1” value (HIV-I; drug 300 μM) was 0/2. The “wells positive for HIV-I p24, LOG VIRUS DILUTION -2” value (HIV-I; drug 300 μM) was 0/2, the “wells positive for HIV-I p24, LOG VIRUS DILUTION -3” value (HIV-I; drug 300 μM) was 0/2 and the “wells positive for HIV-I p24, LOG VIRUS DILUTION -4” value (HIV-I; drug 300 μM) was 0/2. For the same compound, the “wells positive for HIV-I p24, LOG VIRUS DILUTION -5” value (HIV-I; drug 300 μM) was 0/2, the “wells positive for HIV-I p24, LOG VIRUS DILUTION -6” value (HIV-I; drug 300 μM) was 0/2 and the TITER (HIV-I; drug 1000 μM) was 10. For the same compound, the “wells positive for HIV-I p24, LOG VIRUS DILUTION -1” value (HIV-I; drug 1000 μM) was 0/2, the “wells positive for HIV-I p24, LOG VIRUS DILUTION -2” value (HIV-I; drug 1000 μM) was 0/2 and the “wells positive for HIV-I p24, LOG VIRUS DILUTION -3” value (HIV-I; drug 1000 μM) was 0/2. For the same compound, the “wells positive for HIV-I p24, LOG VIRUS DILUTION -4” value (HIV-I; drug 1000 μM) was 0/2, the “wells positive for HIV-I p24, LOG VIRUS DILUTION -5” value (HIV-I; drug 1000 μM) was 0/2 and the “wells positive for HIV-I p24, LOG VIRUS DILUTION -6” value (HIV-I; drug 1000 μM) was 0/2. For the same compound, the T lymphocyte responsiveness (T lymphocytes; 10 µM, third experiment) was “Increased”, the T lymphocyte function (T lymphocytes; 1000 µM down to 10 µM, third experiment (Figs. 7 and 8)) was “reductions” and the T lymphocyte proliferation (T lymphocytes; 0.1 - 10 µM, first experiment) was “No effect or an increase”. The “reduction in T lymphocyte function” value (T lymphocytes; 30 -35 u.M, third experiment) was roughly 25%, the T lymphocyte proliferation (T lymphocytes; 30 down to 10 u.M, second experiment (Figs. 3 and 4)) was “No appreciable reduction” and the “Proliferative activity of T lymphocytes, change” value (T lymphocytes; 30 u.M, first experiment) was 25%. For the same compound, the “T lymphocytes' abilities to proliferate” value (T lymphocytes; 100 u.M or greater, first experiment (Figs. 1 and 2)) was “reduction”, the ICso (HIV-1 and CAEV) was 3 to 30 µM and the IC50 (HIV-1 and CAEV; approximately) was 2 to 6 µM.
